Here are results for 7 molecules from paper PMC4387594, “Pentacycloundecane lactam vs lactone norstatine type protease HIV inhibitors: binding energy calculations and DFT study” (Journal of Biomedical Science, 2015).

Read-outs that look alike come from different tables or passages of the source. Peptide text beside a SMILES is read from it. * marks the point of attachment. X2 = O=C1OC2(C(=O)*)C3C4CC5C6C4C2C6C1(O)C53; X1 = O=C1NC2(N*)C3C4CC5C6C4C2C6C1(O)C53

Data set [1] concerns the target T1, wild type C-South African (C-SA) HIV-1 protease (Human immunodeficiency virus type 1 group M subtype B, UniProt P12497, H557K/I503V/I581L/L507I/L577M/M524I/R529K/T500S).
T1 construct: Over-expression, extraction and purification of the C-SA protease and in vitro HIV-1 protease activity were reported in our earlier publications; made in house
Nature of the data set: in vitro HIV-1 protease inhibition (C-SA PR). In kind it is biochemical, HIV-1 subtype C. The text has this:
Over-expression, extraction and purification of the C-SA protease and in vitro HIV-1 protease activity were reported in our earlier publications. Genetic diversity among HIV-1 subtypes ranges between 25 and 35% at the nucleotide level and variation within subtypes vary from 15 to 20% [48, 49].
The HIV-1 subtype C PR that predominates in South Africa (C-SA PR) is defined as the consensus subtype C PR [51]. This C-SA PR contains eight polymorphic sites (T12S, I15V, L19I, M36I, R41K, H69K, L89M, and I93L) in relation to the wild-type subtype B HIV-1 PR [52].
The procedures followed were the same as reported before ^12,13.

For data set [2] the following is noted: 1H NMR, ref [19],[20], cited from earlier work. Here is the method:
It is therefore most likely that the lactam form is the active form in aqueous solution (also used for the IC50 experiments). The conformation for the amide side chain with the lowest energy was determined. In both cases this conformation involved intramolecular hydrogen bonding (O5 ...

Molecule `CC[C@H](C)[C@H](NC(=O)[C@H](C)NC(=O)[C@H](CCC(=O)O)NC(=O)C12OC(=O)C3(O)C4C5CC(C6C5C3C61)C42)C(N)=O` (some centres unmarked) [PCU-lactone-CO-EAI] yielded an IC50 in data set [1] of 2600 nM.

As for `CC(=O)NC12N=C(O)C3(O)C4C5CC(C6C5C3C61)C42` (racemic) [PCU-lactim], the tautomer preference entry in data set [2] (dioxane) is reported as “dominant”.

`CC[C@H](C)[C@H](NC(=O)[C@@H](N)CO)C(=O)N[C@@H](C)C(=O)N[C@@H](CCC(=O)O)C(=O)NC12NC(=O)C3(O)C4C5CC(C6C5C3C61)C42` (some centres unmarked) [PCU-lactam-NH-EAIS] (H-SIAE-X1): the IC50 in data set [1] is about 78 nM.

Take `CC[C@H](C)[C@H](NC(=O)[C@H](C)NC(=O)C12OC(=O)C3(O)C4C5CC(C6C5C3C61)C42)C(=O)N[C@@H](CO)C(N)=O` (some centres unmarked) [PCU-lactone-CO-AIS]: in data set [1], the IC50 was 830 nM.

Take `CC[C@H](C)[C@H](NC(=O)[C@H](C)NC(=O)[C@H](CCC(=O)O)NC(=O)C12OC(=O)C3(O)C4C5CC(C6C5C3C61)C42)C(=O)N[C@@H](CO)C(N)=O` (some centres unmarked) [PCU-lactone-CO-EAIS] (X2-EAIS-NH2): half-maximal inhibition in data set [1] (IC50) required 850 ± 180 nM. Also, the “IC50 relative to the corresponding cage lactam peptide” value in data set [1] (C-SA HIV-1 protease) was “eleven times weaker”.

In the case of `COC(=O)N[C@H](C(=O)N[C@@H](Cc1ccccc1)[C@@H](O)CN(Cc1ccc(-c2ccccn2)cc1)NC(=O)[C@@H](NC(=O)OC)C(C)(C)C)C(C)(C)C` [Atazanavir, reference compound], in data set [1], the IC50 is 4 ± 0.71 nM.

Consider `CC(=O)NC12NC(=O)C3(O)C4C5CC(C6C5C3C61)C42` (racemic) [PCU-lactam], for which the tautomer preference result in data set [2] ((CD3)2SO) is “major tautomer”.

Usually IC50 stands for the concentration that inhibits the measured activity by half.
